Earlier results, collected in patent publication US20040063806A1, “Antimicrobial polyalphaolefin composition” (priority 2000, published 2004).
Read-outs that look alike come from different tables or passages of the source.

Legend:
Klebsiella edwardsii = Klebsiella edwardsii NCTC 7242, medium NA
Mycobacterium phlei = settings: origin A, medium BHI-A
[1] = test system: Trichophyton mentsgrophytes; settings: Trichophyton mentsgrophytes ATCC 9533, medium SMA
Listeria monocytogenes = Listeria monocytogenes ATCC 15313, medium BHI-A
Clostridium botulinum = Clostridium botulinum NCTC 3805, medium EA
Candida paracrusei = settings: origin A, medium SMA
[2] = test system: Bacillus cereus var. mycoides; settings: origin A, medium NA
Lactobacillus fermenti = Lactobacillus fermenti ATCC 707, medium MACA
Sporosarcina urea = Sporosarcina urea ATCC 6473, medium BHI-A
Proteus mirabilis = Proteus mirabilis ATCC 14153, medium M-H
[3] = test system: Staphylococcus epidermidis; settings: Staphylococcus epidermidis ATCC 12228, medium M-H
Microsporum canis = Microsporum canis ATCC 10214, medium SMA
Trichophyton rubrum = settings: origin A, medium SMA
Bacteroides fragilis = Bacteroides fragilis ATCC 23745, medium M-H
Neisseria catarrhalis = Neisseria catarrhalis NCTC 3622, medium BA
Lactobacillus rhamnosus = Lactobacillus rhamnosus NCTC 7469, medium MACA
Brucella abortus = Brucella abortus NCTC 8226, medium BR.A.A.
[4] = test system: Staphylococcus saprophyticus; settings: Staphylococcus saprophyticus NCTC 7292, medium NA
Streptococcus coelicolor = settings: origin A, medium BHI-A
Haemophilius influenca = Haemophilius influenca ATCC 33391, medium B-A
Aerobacter arogenes = Aerobacter arogenes CITM 413, medium NA
Alcaligenes faecalis = settings: origin A, medium NA
Clostridium sporogenes = settings: origin A, medium EA
Shigella dysenteriae = Shigella dysenteriae NCTC 2249, medium NA
Salmonella enteritidis = settings: origin A, medium NA
Salmonella paratyphi A = Salmonella paratyphi A NCTC 5322, medium NA
Serratia marcescens = Serratia marcescens ATCC 14756, medium M-H
Pityrosporum ovalae = Pityrosporum ovalae ATCC 14521, medium M
Moraxella lwolffii = settings: origin A, medium NA
Mycobacterium smegmatis = Mycobacterium smegmatis NCTC 8152, medium BHI-A
Klebsiella oxytoca = Klebsiella oxytoca ATCC 43165, medium M-H
Streptococcus pneumoniae = Streptococcus pneumoniae ATCC 33400, medium M-H
Candida utilis = settings: origin A, medium SMA
Bacillus megatherium = settings: origin A, medium NA
Acinetobacter lwoffii = Acinetobacter lwoffii ATCC 15309, medium M-H

For `Oc1cc(Cl)ccc1Oc1ccc(Cl)cc1Cl` [IRGAGUARD B 1000, 2,4,4′-trichloro-2′-hydroxydiphenyl ether], the Microbiostatic effect (Klebsiella edwardsii) is given as 0.3 ppm, the Microbiostatic effect (Mycobacterium phlei) is given as 0.3 ppm and the Microbiostatic effect [1] is given as 1 ppm. The Microbiostatic effect (Listeria monocytogenes) was 1.0 ppm, the Microbiostatic effect (Clostridium botulinum) was 3.0 ppm and the Microbiostatic effect (Enterococcus faecium; Enterococcus faecium ATCC 10541, medium BHI-A) was 3.0 ppm. The Microbiostatic effect (Enterococcus faecium; Enterococcus faedium ATCC 6057, medium M-H) was 4.0 ppm, the Microbiostatic effect (Enterococcus faecium; Enterococcus faedium NCTC 8619, medium BHI-A) was 10.0 ppm and the Microbiostatic effect (Candida paracrusei) was 4 ppm. The Microbiostatic effect [2] was 3.0 ppm, the Microbiostatic effect (Lactobacillus fermenti) was 33.0 ppm and the Microbiostatic effect (Sporosarcina urea) was 0.1 ppm. For the same compound, the Microbiostatic effect (Proteus mirabilis) was 0.5 ppm, the Microbiostatic effect [3] was under 0.125 ppm and the Microbiostatic effect (Microsporum canis) was 3 ppm. The Microbiostatic effect (Escherichia coli; Escheria coli ATCC 8196, medium M-H) was 0.02 ppm, the Microbiostatic effect (Escherichia coli; Escherichia coli ATCC 4388, medium M-H, Serotype 0157) was 0.1 ppm and the Microbiostatic effect (Escherichia coli; Escherichia coli ATCC 9661, medium NA) was 0.3 ppm. The Microbiostatic effect (Escherichia coli; Escherichia coli ATCC 10536, medium BHI) was 0.5 ppm, the Microbiostatic effect (Escherichia coli; Escherichia coli ATCC 11229, medium M-H) was 0.5 ppm and the Microbiostatic effect (Escherichia coli; Escherichia coli ATCC 25922, medium M-H) was 0.25 ppm. The Microbiostatic effect (Escherichia coli; Escherichia coli ATCC 35150, medium M-H, Serotype 0157) was 0.2 ppm, the Microbiostatic effect (Escherichia coli; Escherichia coli ATCC 43889, medium M-H, Serotype 0157) was 0.2 ppm and the Microbiostatic effect (Escherichia coli; Escherichia coli ATCC 43890, medium M-H, Serotype 0157) was 0.2 ppm. For the same compound, the Microbiostatic effect (Escherichia coli; Escherichia coli NCTC 9663, medium NA) was 0.3 ppm, the Microbiostatic effect (Escherichia coli; Escherichia coli NCTC 11186, medium M-H, Tobramicin resistant) was 0.5 ppm and the Microbiostatic effect (Trichophyton rubrum) was 10 ppm. The Microbiostatic effect (Candida albicans; Candida albicans ATCC 10259, medium M) was 3 ppm, the Microbiostatic effect (Candida albicans; Candida albicans, origin A, medium SMA) was 10 ppm and the Microbiostatic effect (Bacteroides fragilis) was 2.0 ppm. For the same compound, the Microbiostatic effect (Neisseria catarrhalis) was 33.0 ppm, the Microbiostatic effect (Lactobacillus rhamnosus) was 33.0 ppm and the Microbiostatic effect (Brucella abortus) was 0.1 ppm. The Microbiostatic effect [4] was 0.1 ppm, the Microbiostatic effect (Streptococcus coelicolor) was 1.0 ppm and the Microbiostatic effect (Haemophilius influenca) was 2.0 ppm. The Microbiostatic effect (Aerobacter arogenes) was 1.0 ppm, the Microbiostatic effect (Alcaligenes faecalis) was over 100 ppm and the Microbiostatic effect (Pseudomonas aeruginosa; Pseudomonad aeruginosa ATCC 12055, medium NA) was over 1000 ppm. The Microbiostatic effect (Pseudomonas aeruginosa; Pseudomonas aeruginosa NCTC 8060, medium NA) was over 1000 ppm, the Microbiostatic effect (Salmonella typhi; Salmonella typhi NCTC 786, medium NA) was 0.3 ppm and the Microbiostatic effect (Salmonella typhi; Salmonella typhi NCTC 8384, medium NA) was 0.3 ppm. The Microbiostatic effect (Clostridium sporogenes) was 10.0 ppm, the Microbiostatic effect (Shigella dysenteriae) was 0.1 ppm and the Microbiostatic effect (Salmonella enteritidis) was 0.1 ppm. The Microbiostatic effect (Salmonella paratyphi A) was 0.3 ppm, the Microbiostatic effect (Serratia marcescens) was over 512 ppm and the Microbiostatic effect (Pityrosporum ovalae) was over 1000 ppm. For the same compound, the Microbiostatic effect (Moraxella lwolffii) was 0.1 ppm, the Microbiostatic effect (Mycobacterium smegmatis) was 1.0 ppm and the Microbiostatic effect (Klebsiella oxytoca) was 1.0 ppm. For the same compound, the Microbiostatic effect (Streptococcus pneumoniae) was 4.0 ppm, the Microbiostatic effect (Candida utilis) was 33 ppm and the Microbiostatic effect (Bacillus megatherium) was 3.0 ppm. For the same compound, the Microbiostatic effect (Acinetobacter lwoffii) was 0.125 ppm.
